Assay type in all cases: cell-based
For one assay, the target named is T1, progesterone receptor (Homo sapiens, UniProt P06401).
T1 construct: expressed in transfected cells; host or cells: CV-1 cells transduced with PRb-BacMam and MMTV-BacMam
T1 sequence (P06401 1-933): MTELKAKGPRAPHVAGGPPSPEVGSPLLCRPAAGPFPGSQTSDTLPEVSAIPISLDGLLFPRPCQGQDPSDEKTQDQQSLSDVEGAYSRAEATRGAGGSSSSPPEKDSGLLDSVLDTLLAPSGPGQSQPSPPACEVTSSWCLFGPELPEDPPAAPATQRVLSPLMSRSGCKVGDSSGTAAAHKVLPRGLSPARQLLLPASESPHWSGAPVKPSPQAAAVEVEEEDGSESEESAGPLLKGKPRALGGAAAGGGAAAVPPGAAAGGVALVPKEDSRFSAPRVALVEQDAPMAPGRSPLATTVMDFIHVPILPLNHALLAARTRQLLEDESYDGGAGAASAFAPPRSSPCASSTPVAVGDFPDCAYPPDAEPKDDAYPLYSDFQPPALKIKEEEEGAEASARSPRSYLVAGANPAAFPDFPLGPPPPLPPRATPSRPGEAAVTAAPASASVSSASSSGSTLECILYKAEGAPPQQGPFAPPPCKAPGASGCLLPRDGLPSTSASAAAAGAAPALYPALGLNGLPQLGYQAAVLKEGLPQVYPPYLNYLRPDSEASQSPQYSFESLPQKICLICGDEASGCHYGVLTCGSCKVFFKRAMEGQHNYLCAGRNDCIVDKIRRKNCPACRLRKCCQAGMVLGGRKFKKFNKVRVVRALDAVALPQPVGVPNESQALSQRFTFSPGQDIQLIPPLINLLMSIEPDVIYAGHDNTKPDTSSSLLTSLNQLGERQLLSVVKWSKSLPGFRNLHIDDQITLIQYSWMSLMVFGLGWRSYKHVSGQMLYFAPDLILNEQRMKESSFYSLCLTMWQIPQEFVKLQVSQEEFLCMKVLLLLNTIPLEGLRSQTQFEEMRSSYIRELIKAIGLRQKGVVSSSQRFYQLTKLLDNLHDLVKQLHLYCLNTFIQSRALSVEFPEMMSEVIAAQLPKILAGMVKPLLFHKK
In words: Assay for progesterone receptor activity (CV-1 cells, PRb-BacMam/MMTV-BacMam). Particulars: CV-1 cells transduced with PRb-BacMam and MMTV-BacMam; read-out: pEC50 progesterone receptor activity (converted). The method in brief:
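CV-1 cells co-transduced with PRb-BacMam and MMTV-BacMam (10% each), seeded onto compounds in DMEM with 10% serum. After 24 h, luminescence was read with Steadylite. pEC50 values were estimated from dose-response curves.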

Another assay has as its system MMTV promoter. In words: MMTV agonist assay in A549 MMTV cells. Particulars: Homo sapiens, A549, 6 h, >85% = full agonist, >20% and <85% = partial or efficacy selective agonist, read-out: average maximum asymptote in the MMTV agonist assay. The text has this: Human lung carcinoma A549 cell line (ECACC No. 86012804) has been stably transfected in house with a plasmid containing a renilla luciferase reporter with an MMTV promoter. Stimulation of the cell line with GR agonists results in intracellular signal transduction and ultimately translocation of GR into the nucleus. This activates the inserted DNA sequence resulting in transcription of the integrated luciferase gene, which is quantified using a light emission. The stably transfected cell line was grown as a monolayer in DMEM supplemented with FCS-HI (10%), Non-essential amino acids (1%), L-Glutamine (2 mM), Pen/Strep (1%) and Geneticin (50 mg/ml).
A 90% confluent T175 flask of A549 MMTV cells was harvested by centrifugation for 5 min at 200 g, resuspended in assay buffer (DMEM supplemented with 10% FCS 2×HI, 2 mM Glutamax, Non essential amino acids and 25 mM HEPES) and diluted to 0.1×10^6/ml. 70 μl of cell solution was dispensed to each well of white Nunc 384-well plates, containing compound at the required concentration. Plates were incubated for 6 h at 37° C., 95% humidity, 5% CO2. Plates were equilibrated to room temperature for 1 h prior to the addition of 10 μl of Renilla substrate to each well of assay plates. The plates were covered to protect the reagents from light, and then incubated at room temperature for approximately 15 mins before reading them on a Viewlux. Dose response curves were constructed from which pEC50 and maximum asymptote values were estimated.

The subject of the next assay is NFκB. In words: NFκB agonist assay in A549 SPAP cells.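 On average maximum asymptote in the NFkB assay: maximum inhibition of the TNFα-induced NFκB-driven signal.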 As to conditions: Homo sapiens; for Emax: A549, A549 SPAP cells, >85% = full agonist, ≧20% = partial or full agonist, read-out: average maximum asymptote in the NFkB assay; for IC50: A549 SPAP cells, TNFα 3.2 ng/ml, read-out: pIC50 for the NFkB assay (converted). The method in brief: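 A549 cells stably carrying an ELAM/NFκB-driven SPAP reporter were pre-incubated 1 h at 37° C with compound, then stimulated with TNFα (3.2 ng/ml final) for 15 h. SPAP activity read colorimetrically with pNPP at 405 nm after ~1 h; pIC50 estimated from dose-response curves.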

In the case of `CN(CC(O)(CNC(=O)c1cnn(-c2ccc(F)cc2)c1N)C(F)(F)F)C(=O)c1c(Cl)cccc1Cl` (racemic) [Example 1 (racemic), 5-Amino-N-(2-{[[(2,6-dichlorophenyl)carbonyl](methyl)amino]methyl}-3,3,3-trifluoro-2-hydroxypropyl)-1-(4-fluorophenyl)-1H-pyrazole-4-carboxamide], at progesterone receptor, the EC50 is more than 1000 nM. The Emax in the assay on MMTV promoter and with NFκB was more than 85% each time. The IC50 with NFκB was less than 1000 nM.

On to `CCN(CC(O)(CNC(=O)c1cnn(-c2ccc(F)cc2)c1N)C(F)(F)F)C(=O)c1c(Cl)cccc1Cl` (racemic) [Example 2 (racemic), 5-Amino-N-(2-{[[(2,6-dichlorophenyl)carbonyl](ethyl)amino]methyl}-3,3,3-trifluoro-2-hydroxypropyl)-1-(4-fluorophenyl)-1H-pyrazole-4-carboxamide], for which, on progesterone receptor, the EC50 was more than 1000 nM. Besides, the Emax with MMTV promoter is more than 85%. For the same compound, in the assay with NFκB, the Emax is more than 85% and the IC50 was less than 1000 nM.

With `Nc1c(C(=O)NCC(O)(CNC(=O)c2c(Cl)cccc2Cl)C(F)(F)F)cnn1-c1ccc(F)cc1` (racemic) [Example 3 (racemic), 5-Amino-N-[2-({[(2,6-dichlorophenyl)carbonyl]amino}methyl)-3,3,3-trifluoro-2-hydroxypropyl]-1-(4-fluorophenyl)-1H-pyrazole-4-carboxamide], the EC50 on progesterone receptor is more than 1000 nM. In addition, in the assay with MMTV promoter, the Emax fell in the range of 20 to 85%. Moreover, in the assay on NFκB, the Emax is not below 20% and the IC50 is less than 1000 nM.

For the compound `CCN(CC(O)(CNC(=O)c1cnn(-c2ccc(F)cc2)c1N)C(F)(F)F)C(=O)c1c(F)cccc1Cl` (racemic) [Example 4 (racemic), 5-Amino-N-(2-{[[(2-chloro-6-fluorophenyl)carbonyl](ethyl)amino]methyl}-3,3,3-trifluoro-2-hydroxypropyl)-1-(4-fluorophenyl)-1H-pyrazole-4-carboxamide], on progesterone receptor, the EC50 is more than 1000 nM. Besides, the Emax with MMTV promoter is more than 85%. In the assay with NFκB, the Emax was more than 85% and the IC50 is less than 1000 nM.

`CCN(CC(O)(CNC(=O)c1cnn(-c2ccc(F)cc2)c1N)C(F)(F)F)C(=O)c1c(F)cccc1F` (racemic) [Example 5 (racemic), 5-Amino-N-(2-{[[(2,6-difluorophenyl)carbonyl](ethyl)amino]methyl}-3,3,3-trifluoro-2-hydroxypropyl)-1-(4-fluorophenyl)-1H-pyrazole-4-carboxamide]: the EC50 on progesterone receptor was more than 1000 nM. In the assay with MMTV promoter, the Emax is more than 85%. In the assay with NFκB, the Emax was more than 85% and the IC50 is less than 1000 nM.

For the compound `Nc1c(C(=O)NCC(O)(CNC(=O)c2c(F)cccc2Cl)C(F)(F)F)cnn1-c1ccc(F)cc1` (racemic) [Example 7 (racemic), 5-Amino-N-[2-({[(2-chloro-6-fluorophenyl)carbonyl]amino}methyl)-3,3,3-trifluoro-2-hydroxypropyl]-1-(4-fluorophenyl)-1H-pyrazole-4-carboxamide], the EC50 on progesterone receptor was more than 1000 nM. In addition, the Emax in the assay on MMTV promoter lay within 20 to 85%. In the assay on NFκB, the Emax is not below 20% and the IC50 was less than 1000 nM.

Turning to `CN(CC(O)(CNC(=O)c1cnn(-c2ccc(F)cc2)c1N)C(F)(F)F)C(=O)c1c(F)cccc1F` (racemic) [Example 8 (racemic), 5-Amino-N-(2-{[[(2,6-difluorophenyl)carbonyl](methyl)amino]methyl}-3,3,3-trifluoro-2-hydroxypropyl)-1-(4-fluorophenyl)-1H-pyrazole-4-carboxamide], at progesterone receptor, the EC50 was more than 1000 nM. Moreover, the Emax with MMTV promoter was more than 85%. For the same compound, in the assay on NFκB, the Emax was more than 85% and the IC50 is less than 1000 nM.

For `CN(CC(O)(CNC(=O)c1cnn(-c2ccc(F)cc2)c1N)C(F)(F)F)C(=O)c1c(F)cccc1Cl` (racemic) [Example 9 (racemic), 5-Amino-N-(2-{[[(2-chloro-6-fluorophenyl)carbonyl](methyl)amino]methyl}-3,3,3-trifluoro-2-hydroxypropyl)-1-(4-fluorophenyl)-1H-pyrazole-4-carboxamide], at progesterone receptor, the EC50 is more than 1000 nM. Further, the Emax in the assay with MMTV promoter and with NFκB was more than 85% in each case. Besides, the IC50 with NFκB was less than 1000 nM.

Regarding `CCN(CC(O)(CNC(=O)c1cnn(-c2ccc(F)cc2)c1N)C(F)(F)F)C(=O)c1ccccc1S(C)(=O)=O` (racemic) [Example 10 (racemic), 5-Amino-N-{2-[(ethyl{[2-(methylsulfonyl)phenyl]carbonyl}amino)methyl]-3,3,3-trifluoro-2-hydroxypropyl}-1-(4-fluorophenyl)-1H-pyrazole-4-carboxamide], the EC50 at progesterone receptor was more than 1000 nM. The Emax with MMTV promoter and with NFκB was more than 85% each time. In the assay on NFκB, the IC50 was less than 1000 nM.

For `Nc1c(C(=O)NCC(O)(CNC(=O)c2c(Br)cccc2Br)C(F)(F)F)cnn1-c1ccc(F)cc1` (racemic) [Example 11 (racemic), 5-Amino-N-[2-({[(2,6-dibromophenyl)carbonyl]amino}methyl)-3,3,3-trifluoro-2-hydroxypropyl]-1-(4-fluorophenyl)-1H-pyrazole-4-carboxamide], the EC50 at progesterone receptor was more than 1000 nM. Moreover, the Emax in the assay with MMTV promoter lay in the range of 20 to 85%. In addition, in the assay with NFκB, the Emax was not below 20% and the IC50 was less than 1000 nM.

In the case of `Nc1c(C(=O)NCC(O)(CNC(=O)c2c(Cl)cccc2Br)C(F)(F)F)cnn1-c1ccc(F)cc1` (racemic) [Example 12 (racemic), 5-Amino-N-[2-({[(2-bromo-6-chlorophenyl)carbonyl]amino}methyl)-3,3,3-trifluoro-2-hydroxypropyl]-1-(4-fluorophenyl)-1H-pyrazole-4-carboxamide], at progesterone receptor, the EC50 is more than 1000 nM. Besides, the Emax in the assay with MMTV promoter was in the range of 20 to 85%. Also, in the assay with NFκB, the Emax is not below 20% and the IC50 was less than 1000 nM.

On to `Nc1c(C(=O)NCC(O)(CNC(=O)c2c(F)cccc2Br)C(F)(F)F)cnn1-c1ccc(F)cc1` (racemic) [Example 13 (racemic), 5-Amino-N-[2-({[(2-bromo-6-fluorophenyl)carbonyl]amino}methyl)-3,3,3-trifluoro-2-hydroxypropyl]-1-(4-fluorophenyl)-1H-pyrazole-4-carboxamide], for which the EC50 at progesterone receptor is more than 1000 nM. The Emax in the assay on MMTV promoter is 20 to 85%; with NFκB, not below 20%. Also, the IC50 in the assay on NFκB was less than 1000 nM.

Regarding `Nc1c(C(=O)NCC(O)(CNC(=O)c2c(Cl)cccc2OC(F)F)C(F)(F)F)cnn1-c1ccc(F)cc1` (racemic) [Example 14 (racemic), 5-Amino-N-(2-{[({2-chloro-6-[(difluoromethyl)oxy]phenyl}carbonyl)amino]methyl}-3,3,3-trifluoro-2-hydroxypropyl)-1-(4-fluorophenyl)-1H-pyrazole-4-carboxamide], the EC50 on progesterone receptor was more than 1000 nM. Also, in the assay with MMTV promoter, the Emax lay within 20 to 85%. In the assay with NFκB, the Emax is not below 20% and the IC50 was less than 1000 nM.
